Source: patent US20160374944A1, “COMPOSITIONS AND METHODS FOR TREATING AND PREVENTING CANCER BY TARGETING AND INHIBITING CANCER STEM CELLS” (priority 2011, published 2016)

Tests used:
[1] = test system: Gli1 and Gli2 in pancreatic CSCs; assay: nuclear translocation of Gli1 and Gli2 (immunostaining); type: cell-based, human; conditions: EGCG 40 or 60 μM, 24 h
Method: Pancreatic CSCs were treated with or without EGCG (40 or 60 μM) for 24 h. At the end of incubation period, CSCs were fixed with paraformaldehyde, permeabilized with titron X100, and blocked with 5% normal goat serum. Cells were then treated with either anti-Gli1 or anti-Gli2 antibody, followed by secondary antibody plus DAPI. Stained cells were mounted and visualized under a fluorescence microscope. Blue fluorescence of DAPI was changed to red color for a better contrast.

[2] = test system: Gli transcriptional activity in pancreatic CSCs; assay: Gli-responsive GFP/firefly luciferase reporter; type: cell-based, human
Method: (A) Pancreatic CSCs were treated with rottlerin (0-1 μM) for 24 h. The expression of Patched-1, Smo and Gli-2 was measured by qRT-PCR. […] (B) Pancreatic CSCs were transduced with Gli-responsive GFP/firefly luciferase viral particles (pGreen Fire1-Gli with EF1, System Biosciences). After transduction, culture medium was replaced and CSCs were treated with rottlerin (0-2 μM) for 24 h. Gli-responsive reporter activity was measured using a luciferase assay (Promega Corporation).
FIG. 40A and FIG. 40C are graphs and photographs showing the inhibition of components of sonic hedgehog pathway, Gli transcription and nuclear translocation by EGCG. (A) Inhibition of components of sonic hedgehog pathway and Gli transcription. Pancreatic CSCs were treated with EGCG (0-60 μM) for 36 h. The expression of Smothened (Smo), patched 1 (PTCH1), patched 2 (PTCH2), was measured by q-RT-PCR. […] (B) Inhibition of Gli1 and Gli2 expression and Gli transcription. Pancreatic CSCs were treated with EGCG (0-60 μM) for 36 h. The expression of Gli1 and Gli2 was measured by q-RT-PCR. Gli reporter activity. CSCs were transduced with Gli-responsive GFP/firefly luciferase viral particles (pGreen Fire1-Gli with EF1, System Biosciences). After transduction, culture medium was replaced and CSCs were treated with EGCG (0-60 μM) for 24 h. Gli-responsive reporter activity was measured by luciferase assay (Promega Corporation). […] Stained cells were mounted and visualized under a fluorescence microscope. Blue fluorescence of DAPI was changed to red color for a better contrast.
FIG. 42A and FIG. 42B show graphs showing quercetin synergizes with EGCG to inhibit self-renewal capacity, invasion, migration, and TCF/LEF and Gli transcriptional activities in pancreatic CSCs. […] Cell viability was measured by trypan blue assay. […] At the end of incubation period, colonies were counted. […] Cells invaded to the lower chambered were fixed with methanol, stained with crystal violet and counted. […] Cells migrated to the lower chambered were fixed with methanol, stained with crystal violet and counted. […] Apoptosis was measured by TUNEL assay. […]

Pancreatic CSCs = assay: spheroid formation and cell viability in spheroids (trypan blue); type: cell-based, human; conditions: SFN 0-10 μM with or without quercetin 20 μM, 7 days
Prostate CSCs [3] = assay: prostate CSCs xenografted sub-cutaneously in NSG mice; type: in vivo; conditions: NOD/SCID/IL2R gamma mice, 20 mg/kg, 6 weeks
Method: (A) Pancreatic CSCs were orthotopically implanted in pancreas of NSG mice, and treated with or without sulforaphane 20 mg/kg, for 6 weeks, (B and C) Pancreatic CSCs were xenografted sub-cutaneously in NSG mice, and treated with or without rottlerin and embelin 20 mg/kg, for 6 weeks, (D and E) Prostate CSCs were xenografted sub-cutaneously in NSG mice, and treated with or without rottlerin and embelin 20 mg/kg, for 6 weeks. At the end of the treatment, weights of tumors in treated mice were compared with control mice.

Prostate CSCs [4] = assay: spheroid formation and cell viability in spheroids (trypan blue); type: cell-based, human; conditions: 7 and 14 days, embelin 0-6 μM, rottlerin 0-2 μM
Method: (§1) In particular, embelin is shown to inhibit spheroid and colony formation, and induce caspase-3 and apoptosis. (A) Prostate CSCs were grown in CSC medium and treated with embelin (0-6 μM) for 7 days to obtain primary spheroids. At the end of incubation period, spheroids were collected, reseeded and treated with embelin for another week to obtain secondary spheroids. Cell viability in spheroids was measured by trypan blue assay at the end of 7 and 14 days. […] (B) Prostate CSCs were seeded in soft agar and treated with embelin (0-6 μM) for 21 days. […] (C and D) Activation of caspase-3 and induction of apoptosis is shown.
as §1, with “(A)” for “In particular, embelin is shown to inhibit spheroid and colony formation, and induce caspase-3 and apoptosis. (A)”, “rottlerin (0-2” for “embelin (0-6”, “rottlerin” for “embelin”, “apoptosis.” for “apoptosis is shown.”
The effects of embelin on growth of prostate CSCs was studied by measuring cell viability and colony formation, as shown in FIGS. 9A and 9B. […]

O=C(O[C@@H]1Cc2c(O)cc(O)cc2O[C@@H]1c1cc(O)c(O)c(O)c1)c1cc(O)c(O)c(O)c1 [EGCG, epigallocatechin gallate]
nuclear expression of Gli1 protein [1]: inhibited the nuclear expression | nuclear expression of Gli2 protein [1]: inhibited the nuclear expression | Gli transcriptional activity ([2]; EGCG 0-60 μM, 24 h, luciferase assay): inhibited Gli transcriptional activity in a dose-dependent manner | Gli transcriptional activity ([2]; EGCG 40 μM with or without quercetin 20 μM, 48 hrs, luciferase): inhibited

O=c1c(O)c(-c2ccc(O)c(O)c2)oc2cc(O)cc(O)c12 [quercetin]
cell viability in spheroids (Pancreatic CSCs): effective alone

CC(=O)c1c(O)c(C)c(O)c(Cc2c(O)c3c(c(C(=O)/C=C/c4ccccc4)c2O)OC(C)(C)C=C3)c1O [rottlerin]
Gli transcriptional activity ([2]; rottlerin 0-2 μM, 24 h, luciferase assay): inhibited Gli transcriptional activity in a dose-dependent manner | tumor growth (weights of tumors vs control mice) (Prostate CSCs [3]): inhibit tumor growth | size of primary and secondary spheroids in suspension (Prostate CSCs [4]; data not shown): inhibited the size | cell viability in spheroids (Prostate CSCs [4]; primary and secondary spheroids, trypan blue): inhibited

C[S+]([O-])CCCCN=C=S (stereo not shown) [sulforaphane]
cell viability in spheroids (Pancreatic CSCs): inhibited the cell viability and colony formation of pancreatic CSCs in a dose-dependent manner
